According to article PMC10454375, “Cell-Impermeable Inhibitors Confirm That Intracellular Human Transglutaminase 2 Is Responsible for the Transglutaminase-Associated Cancer Phenotype” (International Journal of Molecular Sciences, 2023):
Peptide text beside a SMILES is read from it. * marks the point of attachment. X1 = C=CC(=O)NCCCCC(NC(=O)OCc1ccccc1)C(=O)N1CCN(C(=O)C(CCC(=O)*)NC(=O)c2cccc3ccccc23)CC1

What was measured:
FXIIIa = molecular target: T1, FXIIIa (Homo sapiens, UniProt P00488); assay: TGase isozyme selectivity, FXIIIa with A101 substrate; format: biochemical; details: [I]/α identical to that of the TG2 assay
T1 construct: purchased Zedira GmbH (Darmstadt, Germany)
T1 sequence (P00488 39-732 limits assumed): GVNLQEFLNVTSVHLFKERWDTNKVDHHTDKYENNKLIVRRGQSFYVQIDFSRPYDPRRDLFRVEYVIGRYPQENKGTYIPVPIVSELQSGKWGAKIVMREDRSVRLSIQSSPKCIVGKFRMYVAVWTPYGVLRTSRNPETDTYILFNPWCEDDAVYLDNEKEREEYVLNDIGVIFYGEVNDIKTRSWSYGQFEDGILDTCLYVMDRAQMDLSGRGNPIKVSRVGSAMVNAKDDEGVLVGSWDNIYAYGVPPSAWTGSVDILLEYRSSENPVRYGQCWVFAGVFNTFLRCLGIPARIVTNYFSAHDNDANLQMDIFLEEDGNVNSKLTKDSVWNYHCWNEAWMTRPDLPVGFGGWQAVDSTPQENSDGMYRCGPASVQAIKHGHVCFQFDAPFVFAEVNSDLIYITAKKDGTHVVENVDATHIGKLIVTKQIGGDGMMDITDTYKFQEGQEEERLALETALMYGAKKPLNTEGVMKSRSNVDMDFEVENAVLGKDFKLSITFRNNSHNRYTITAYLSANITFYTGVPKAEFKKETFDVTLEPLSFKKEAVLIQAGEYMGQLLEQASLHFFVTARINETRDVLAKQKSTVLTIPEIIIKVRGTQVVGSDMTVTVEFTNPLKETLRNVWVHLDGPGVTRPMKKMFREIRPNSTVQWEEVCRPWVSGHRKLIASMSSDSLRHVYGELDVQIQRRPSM
From the text: In the development of probes for TGases, isozyme selectivity is always a significant challenge. Since the catalytic machinery of the active sites of all TGases features a conserved Gly-Gln-Cys-Trp-Val sequence, selectivity for one isozyme over the others requires exploitation of slight differences in the protein substrate binding sites. In order to assess the isozyme selectivity of our cell-impermeable inhibitors, TG2 and four other therapeutically relevant TGases (Factor XIII, TG1, TG3, and TG6) were exposed to a concentration of inhibitor representing the same apparent competition with respect to the assay substrate (AL5 [38] or A101 [42, 43]). In other words, both the substrate and inhibitor concentrations were varied so that the [I]/α values were identical. […] This provides confidence that in further applications, these cell-impermeable inhibitors will selectively target TG2 over other transglutaminases.
To monitor the activity of TG3a and TG6, a FRET-quenched substrate A101 (Zedira Gmbh) was used. […] The isopeptidase activity of the respective TGase was then monitored at Ex/Em = 313/418 nm with a BioTek Synergy 4 plate reader at 25 °C. […]

PAMPA test = format: in vitro ADME; details: compound not detected in receptor compartment, limit of detection reported
From the text: The cell-impermeable inhibitors 17 and 18 were designed to violate virtually all of the rules for cellular permeability described by Lipinski and Veber. They were also empirically evaluated with respect to their pharmacokinetic properties, in particular to determine their cell permeability. In a PAMPA test, the −Log Pe values were very high (Table 2). […] Indeed, neither compound was even detected in the receptor compartment for the PAMPA, resulting in the lower limit of detection being reported as an approximate value.

Log D = format: physicochemical
From the text: Table 2 Representative pharmacokinetic properties for cell-impermeable inhibitors 17 and 18. | column: 17; 18 (NCEG2)

Row | Structure (SMILES) | inhibition of Factor XIII (FXIIIa) | −Log Pe (PAMPA test) | logD (Log D)
1 | C=CC(=O)NCCCCC(NC(=O)OCc1ccccc1)C(=O)N1CCN(C(=O)C(CCC(=O)NCC(=O)NCC(=O)NCC(=O)NC(CC(=O)O)C(=O)NC(CC(=O)O)C(=O)NC(CC(=O)O)C(=O)O)NC(=O)c2cccc3ccccc23)CC1 (stereo not drawn) [Compound 18] (X1-GGGDDD-OH; configuration not given here) | no detectable inhibition | >8.79 | < -2.63
2 | C=CC(=O)NCCCCC(NC(=O)OCc1ccccc1)C(=O)N1CCN(C(=O)C(CCC(=O)NCCCCCC(=O)NC(CC(=O)O)C(=O)NC(CC(=O)O)C(=O)NC(CC(=O)O)C(=O)O)NC(=O)c2cccc3ccccc23)CC1 (stereo not drawn) [Compound 17] | no detectable inhibition | >9.02 | < -2.73
